Reference: PubChem BioAssay (NCI)
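Briefly, cells in 96-well plates were exposed to five compound concentrations for 48 h, and endpoints were estimated by linear interpolation. At the TGI there is no net growth.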

What was measured:
Assay in all cases: growth of human tumour cells (NCI), 48 h
[1] = system: SK-MEL-2 melanoma
[2] = system: MALME-3M melanoma
[3] = system: CAKI-1 renal
[4] = system: NCI-H226 lung
[5] = system: LXFL 529 NSCLC
[6] = system: SK-MEL-28 melanoma
[7] = system: IGROV1 ovarian
[8] = system: LOX IMVI melanoma
[9] = system: OVCAR-8 ovarian
[10] = system: NCI-H460 lung
[11] = system: SK-OV-3 ovarian
[12] = system: NCI-H522 lung
[13] = system: HL-60(TB) leukemia
[14] = system: KM20L2 colon
[15] = system: CCRF-CEM leukemia
[16] = system: UO-31 renal
[17] = system: SF-268 CNS
[18] = system: DLD-1 colon
[19] = system: HT29 colon
[20] = system: UACC-62 melanoma
[21] = system: HCT-15 colon
[22] = system: SNB-19 CNS
[23] = system: SK-MEL-5 melanoma
[24] = system: HOP-18 NSCLC
[25] = system: M14 melanoma
[26] = system: SNB-78 CNS
[27] = system: DMS 114 small cell lung
[28] = system: SW-620 colon
[29] = system: NCI-H23 lung
[30] = system: TK-10 renal
[31] = system: COLO 205 colon
[32] = system: M19-MEL melanoma
[33] = system: RXF-631 renal
[34] = system: DMS 273 small cell lung
[35] = system: ACHN renal
[36] = system: SNB-75 CNS
[37] = system: RPMI-8226 leukemia
[38] = system: A498 renal
[39] = system: OVCAR-3 ovarian
[40] = system: EKVX NSCLC
[41] = system: SN12C renal
[42] = system: MOLT-4 leukemia
[43] = system: HOP-92 NSCLC
[44] = system: SF-295 CNS
[45] = system: U251 CNS
[46] = system: SF-539 CNS
[47] = system: K-562 leukemia

Measured: TGI

CCOCc1cc(=O)c2c(O)cc3c(c2o1)CCC(C)(C)O3
> 100 µM: all assays above
